Measured values from US12084422B2, “Phenyl-n-quinoline derivatives for treating a RNA virus infection” (ABIVAX, priority 2018, dated 2024).

System: DENV-2 strain 16681
Assay: Screening for DENV-2 inhibition using Viral ToxGlo assay in A549 cells
Assay type: cell-based, Dengue 2 virus
Conditions: Dengue virus, DENV2, A549, 120 h, read-out: % DENV-2 Inhibition Mean (n = 3)
Protocol: Protocol for Screening Antiviral Compounds for DENV-2 Inhibition and Cytotoxicity Using Viral ToxGlo Assay
A549 cells were maintained in Dulbecco's Modified Eagle Medium (DMEM) supplemented with 10% fetal bovine serum, 100 U/ml penicillin and 100 μg/ml streptomycin. For the purposes of the screening assay they were grown to 90% confluency, trypsinized and recovered. The trypsin was neutralised with cell culture media and cells were centrifuged at 150×g for 5 minutes before discarding the supernatant and resuspending cell pellet in assay media (DMEM supplemented with 2% fetal bovine serum and 100 U/ml penicillin and 100 μg/ml streptomycin). The cells were seeded into 96-well white clear-bottomed cell culture plates at a density of 1.0×10^4 cells/well in 50 μl. For the media/background control column assay media only was added. Cell plates were placed in a humid chamber and incubated overnight at 37° C./5% CO2. After overnight incubation cells were checked for confluency and healthy appearance.
Test compounds were prepared at a final concentration of 10 μM, in a maximum DMSO concentration of 1% (final assay concentration maximal 0.1% DMSO) and added to the cell plates in volumes of 10 μl. For cell control and virus control wells the test article solvent only was added. As a positive inhibition control, 7-Deaza-2′-C-methyladenosine was added at 100 μM in 3 wells. Virus (DENV-2 strain 16681) or assay media for cytotoxicity test wells and media/cell control wells was added immediately after test articles at an MOI of 0.5, 40 for 96 well plates respectively. Virus suspension was prepared by thawing DENV-2 frozen stocks and diluting to the required concentration of plaque forming units in assay media.
Cell plates were further incubated inside a humid chamber for 5 days p.i at 37° C./5% CO2. After the incubation period cells were observed under the microscope to check for characteristic cytopathic effect in virus control wells and healthy cells in the cell control wells. After plates were adjusted to room temperature 20 μl Viral ToxGlo (Promega) was added to each well of the 96-well cell plates. Plates were incubated at room temperature for 5 minutes before measuring the luminescence on a spectrophotometer (Envision, PerkinElmer).
DENV-2 inhibition was calculated as percentage of cytopathic effect inhibition relative to the virus control and cytotoxicity as percentage of cell survival relative to cell control wells.

Row | Structure (SMILES) | inhibition at 10 µM [%]
1 | Cc1cc(OC(C)C)ccc1Nc1ccc2cccc(Cl)c2n1 [Compound 10, 8-chloro-N-(4-isopropoxy-2-methylphenyl)quinolin-2-amine] | 79
2 | CCc1cc(OC(C)C)ccc1Nc1ccc2cccc(Cl)c2n1 [Compound 13, 8-chloro-N-(2-ethyl-4-isopropoxyphenyl)quinolin-2-amine] | 117
3 | Cc1cc(OC(C)C)c(C)cc1Nc1ccc2cccc(Cl)c2n1 [Compound 43, 8-chloro-N-(4-isopropoxy-2,5-dimethylphenyl)quinolin-2-amine] | 68
